From patent US7772402B2, “Optically detectable organophosphonates” (Austria Wirtschaftsservice Gesellschaft Mit Beschrankter …, priority 2003, dated 2010)

Columns and labels:
[1] = target: T1, lipase from Rhizopus oryzae (ROL) (Rhizopus oryzae, UniProt P61872); assay: Inhibition of lipase activity in Triton X-100 micelles, continuous fluorescence method; assay type: biochemical; conditions: 4° C. for 16 hrs, 100 μM Tris-HCl puffer, inhibitor 1.0 mM, lipase 0.1 mM; FIG. 3a
T1 construct: F. Spener and L. Haalck, University of Münster (gift)
T1 sequence (P61872 96-392): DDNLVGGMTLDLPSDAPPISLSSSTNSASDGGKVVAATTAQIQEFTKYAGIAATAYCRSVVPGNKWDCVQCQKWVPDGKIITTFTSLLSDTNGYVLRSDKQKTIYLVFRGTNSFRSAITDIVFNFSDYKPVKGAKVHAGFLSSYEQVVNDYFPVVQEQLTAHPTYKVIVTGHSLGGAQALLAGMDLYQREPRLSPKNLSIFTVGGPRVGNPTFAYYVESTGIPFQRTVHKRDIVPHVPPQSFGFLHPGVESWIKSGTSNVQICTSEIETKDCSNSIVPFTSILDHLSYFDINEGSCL
Method: (§1) Inhibition of lipase activity by the water-insoluble phosphonates was performed in Triton X-100 micelles (2 mM final concentration) and measured by a continuous fluorescence method according to Duque et al, (J. Lipid Res. 37, 868-876 (1996)) using 3-O-hexadecyl-2-pyrenedecanoyl-1-trinitrophenylaminododecanoyl-sn-glycerol as a substrate. Lipase activity was determined at 30° C. from the dequenching of pyrene fluorescence at 378 nm (excitation at 342 nm, slit widths 5.0 nm each) (the initial linear increase in fluorescence intensity after addition of the lipase was used to measure enzyme activity). The measurements were performed in ethanol-water (1:3 by vol.) as a solvent.
(§2) Triton X-100 specially purified for membrane research (Hofmann La Roche) (10 μL of a 100 mM stock solution in chloroform) and the appropriate volume of a phosphonate solution in chloroform were mixed and the solvent was removed under a stream of nitrogen. The residue was dispersed in an 100 μM Tris-HCl puffer (pH 7.40 at 37° C.) by vigorous vortexing followed by addition of an aliquot of a lipase solution, giving a total volume of 500 μL. Incubations were performed at 4° C. The percentage of inhibition after 16 hrs in the reaction mixture was determined by measuring the residual lipase activity of appropriate aliquots (3 μL) as indicated above. Controls were run in parallel under identical conditions but in the absence of inhibitors.
(§3) The novel compounds were tested with respect to their ability to inhibit three selected microbial lipases with different substrate preferences. The lipase from Rhizopus oryzae was efficiently inactivated by the perylene- and NBD-inhibitors (FIG. 3a) at 4° C. for 16 hrs in 100 μM Tris-HCl puffer at inhibitor and lipase concentrations of 1.0 mM and 0.1 mM, respectively. […] This is in line with the assumption that lipases prefer long-chain glycerol esters as substrates, and evidently inhibitors as well. […] In contrast, the Pseudomonas species lipase was quantitatively inactivated by all synthesized organophosphonates (FIG. 3c).

[2] = target: T2, lipase from Pseudomonas cepacia (PCL) (Burkholderia cepacia, UniProt P22088); assay: as above; assay type: biochemical; conditions: incubation 4° C., 16 hrs; FIG. 3b
T2 construct: R.D. Schmid, University of Stuttgart (obtained, not a commercial purchase)
Method: as §1, §2, §3

T2 sequence (P22088 45-364): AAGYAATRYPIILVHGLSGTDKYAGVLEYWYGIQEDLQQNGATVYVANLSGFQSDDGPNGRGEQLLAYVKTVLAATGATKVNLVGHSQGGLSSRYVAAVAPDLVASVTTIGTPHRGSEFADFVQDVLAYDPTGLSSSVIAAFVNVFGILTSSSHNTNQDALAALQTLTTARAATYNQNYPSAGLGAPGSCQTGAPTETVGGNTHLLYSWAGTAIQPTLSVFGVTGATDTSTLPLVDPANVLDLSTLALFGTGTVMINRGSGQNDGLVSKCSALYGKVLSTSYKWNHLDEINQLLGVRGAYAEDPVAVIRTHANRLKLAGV

Row | SMILES | inhibition (inactivation) of lipase from Rhizopus oryzae [1] | inhibition of lipase from Pseudomonas cepacia [2]
1 | CCCCCCCCCCCCCCCCOCC(COP(=O)(CCCCCC)Oc1ccc([N+](=O)[O-])cc1)NC(=O)CCCCCCCc1ccc2c3cccc4cccc(c5cccc1c52)c43 (stereo not drawn) [XXIII, 2-(8-(3-Perylenyl)octanoyl)amino-2-deoxy-3-O-hexadecyl-sn-glycero-1-O-hexylphosphonate p-nitrophenyl ester] | somewhat more active | –
2 | CCCCCCCCCCCCCCCCOCC(COP(=O)(CCCCCC)Oc1ccc([N+](=O)[O-])cc1)NC(=O)CCCCCCCCCCCNc1ccc([N+](=O)[O-])c2nonc12 (stereo not drawn) [XXV, 2-(NBD-dodecanoyl)amino-2-deoxy-3-O-hexadecyl-sn-glycero-1-O-hexylphosphonate p-nitrophenyl ester] | slightly more effective | –
3 | CCCCCCCCOCC(COP(=O)(CCCCCC)Oc1ccc([N+](=O)[O-])cc1)NC(=O)CCCc1ccc2c3cccc4cccc(c5cccc1c52)c43 (stereo not drawn) [XXII, 2-(4-(3-Perylenyl)butanoyl)amino-2-deoxy-3-O-octyl-sn-glycero-1-O-hexylphosphonate p-nitrophenyl ester] | – | much more potent inhibitor
